Measured values as given in PubChem BioAssay AID248 (DTP/NCI, 2004).
Where “and” joins values, the source holds several entries; their conditions need not be identical. Equal values may be shown once. Inconclusive results and toxic doses are left out. No stated cut-off is given here; in the data, active means T/C of 150% or more; inactive means T/C below 125%.

Tested on: L1210 leukemia ip in BDF1 mice, survival T/C
Assay: NCI In Vivo Anticancer Drug Screen. Data for tumor model L1210 Leukemia (intraperitoneal) in B6D2F1 (BDF1) mice
Conditions: endpoint: mean survival time, higher = longer survival
In short: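 Tumor was transplanted into mice, which were then dosed with test compound or vehicle alone. Survival was recorded for each group, and the treated figure was expressed relative to the control figure.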

[1] = dose: 100.0 mg/kg/injection, schedule: Q01DX001 (ip), vehicle: Klucel (hydroxypropylcellulose) (HPC)
[2] = dose: 200.0 mg/kg/injection, schedule: Q01DX001 (ip), vehicle: Klucel (hydroxypropylcellulose) (HPC)
[3] = dose: 100.0 mg/kg/injection, schedule: Q01DX009 (ip), vehicle: saline with Tween-80
[4] = dose: 100.0 mg/kg/injection, schedule: Q04DX003 (ip), vehicle: saline with Tween-80
[5] = dose: 200.0 mg/kg/injection, schedule: Q01DX009 (ip), vehicle: saline with Tween-80
[6] = dose: 200.0 mg/kg/injection, schedule: Q04DX003 (ip), vehicle: saline with Tween-80
[7] = dose: 400.0 mg/kg/injection, schedule: Q04DX003 (ip), vehicle: saline with Tween-80
[8] = dose: 100.0 mg/kg/injection, schedule: Q01DX009 (ip), vehicle: Klucel (hydroxypropylcellulose) (HPC)
[9] = dose: 100.0 mg/kg/injection, schedule: Q04DX003 (ip), vehicle: Klucel (hydroxypropylcellulose) (HPC)
[10] = dose: 200.0 mg/kg/injection, schedule: Q01DX009 (ip), vehicle: Klucel (hydroxypropylcellulose) (HPC)
[11] = dose: 100.0 mg/kg/injection, schedule: Q01DX001 (ip), vehicle: saline
[12] = dose: 200.0 mg/kg/injection, schedule: Q01DX001 (ip), vehicle: saline
[13] = dose: 400.0 mg/kg/injection, schedule: Q01DX001 (ip), vehicle: saline
[14] = dose: 100.0 mg/kg/injection, schedule: Q04DX003 (ip), vehicle: saline

Measured: T/C

N#[N+]c1ccc(Br)cc1-c1nc(N)c2cc(Br)ccc2n1
inactive: dose: 50.0 mg/kg/injection, schedule: Q01DX001 (ip), vehicle: Klucel (hydroxypropylcellulose) (HPC) 94 % of control | [1] 105 % of control | [2] 105 % of control

Cc1ccc(S(=O)(=O)N/N=C2\CC3(Cl)CCC2C3)cc1 (configuration not stated)
inactive: [3] 88 % of control | [4] 92 % of control | [5] 91 % of control | [6] 97 % of control | [7] 101 % of control

CC(C)(C)N1C(C(=O)c2ccccc2)C1C(=O)c1ccccc1 (configuration not stated)
inactive: [1] 97 % of control | [2] 95 % of control | dose: 400.0 mg/kg/injection, schedule: Q01DX001 (ip), vehicle: Klucel (hydroxypropylcellulose) (HPC) 89 % of control

CCCCCCCCCCCCN=Cc1cc(Cl)ccc1O
inactive: dose: 222.0 mg/kg/injection, schedule: Q01DX Z (ip), vehicle: methylcellulose (MC) 95 % of control | dose: 333.0 mg/kg/injection, schedule: Q01DX Z (ip), vehicle: methylcellulose (MC) 102 % of control | dose: 500.0 mg/kg/injection, schedule: Q01DX Z (ip), vehicle: methylcellulose (MC) 102 % of control

CC(C)(C)OC(=O)NNC(=O)C(CSC(c1ccccc1)c1ccccc1)N1C(=O)c2ccccc2C1=O (configuration not stated)
inactive: [8] 101 % of control | [9] 90 % of control | [10] 94 % of control | dose: 200.0 mg/kg/injection, schedule: Q04DX003 (ip), vehicle: Klucel (hydroxypropylcellulose) (HPC) 94 % of control | dose: 400.0 mg/kg/injection, schedule: Q01DX009 (ip), vehicle: Klucel (hydroxypropylcellulose) (HPC) 101 % of control | dose: 400.0 mg/kg/injection, schedule: Q04DX003 (ip), vehicle: Klucel (hydroxypropylcellulose) (HPC) 99 % of control

C=CCOCC(O)C[As](=O)(O)c1ccc(OC)cc1 (configuration not stated)
inactive: dose: 25.0 mg/kg/injection, schedule: Q04DX003 (ip), vehicle: saline with Tween-80 87 % of control

Clc1nc(Cl)c2c(ncn2Cc2ccccc2)n1
inactive: dose: 100.0 mg/kg/injection, schedule: Q01DX001 (ip), vehicle: other 95 % of control | dose: 200.0 mg/kg/injection, schedule: Q01DX001 (ip), vehicle: other 104 % of control

COC(=O)C1(C)COP(=O)(O)OC1 (configuration not stated)
inactive: [11] 91 % of control and 103 % of control | [12] 89 % of control and 100 % of control | [13] 97 % of control

C=Cc1c(C)c2cc3[nH]c(cc4nc(cc5nc(cc1[nH]2)C(C)=C5CCC(=O)O)C(CCC(=O)O)=C4C)c(C)c3C=C
inactive: dose: 100.0 mg/kg/injection, schedule: Q04DX003 (ip), vehicle: dextrose 96 % of control | dose: 200.0 mg/kg/injection, schedule: Q04DX003 (ip), vehicle: dextrose 100 % of control | dose: 400.0 mg/kg/injection, schedule: Q01DX009 (ip), vehicle: saline with Tween-80 88 % of control | dose: 400.0 mg/kg/injection, schedule: Q04DX003 (ip), vehicle: dextrose 100 % of control

N#Cc1ccc(-c2nc3ncnc(N)c3[nH]2)cc1
inactive: dose: 100.0 mg/kg/injection, schedule: Q04DX002 (ip), vehicle: Klucel (hydroxypropylcellulose) (HPC) 97 % of control | dose: 200.0 mg/kg/injection, schedule: Q04DX002 (ip), vehicle: Klucel (hydroxypropylcellulose) (HPC) 105 % of control | dose: 400.0 mg/kg/injection, schedule: Q04DX002 (ip), vehicle: Klucel (hydroxypropylcellulose) (HPC) 101 % of control

COc1cc(N=Nc2ccccc2C(=O)O)ccc1O
inactive: [3] 96 % of control | [4] 96 % of control | [5] 104 % of control | [6] 101 % of control | [7] 101 % of control

CSc1nncc(-c2ccccc2)n1
inactive: dose: 25.0 mg/kg/injection, schedule: Q04DX003 (ip), vehicle: Klucel (hydroxypropylcellulose) (HPC) 97 % of control | dose: 50.0 mg/kg/injection, schedule: Q04DX003 (ip), vehicle: Klucel (hydroxypropylcellulose) (HPC) 96 % of control | [1] 100 % of control | [9] 102 % of control

COc1ccc(OC)c(NC(=O)c2c(Br)c(Br)c(Br)c(Br)c2C(=O)O)c1
inactive: [8] 109 % of control | [10] 97 % of control

CNC(C)Cc1ccccc1 (configuration not stated)
inactive: dose: 1.87 mg/kg/injection, schedule: Q04DX003 (ip), vehicle: saline 103 % of control and 116 % of control | dose: 3.75 mg/kg/injection, schedule: Q01DX009 (ip), vehicle: saline 95 % of control | dose: 3.75 mg/kg/injection, schedule: Q04DX003 (ip), vehicle: saline 106 % of control and 116 % of control | dose: 7.5 mg/kg/injection, schedule: Q01DX009 (ip), vehicle: saline 103 % of control and 98 % of control | dose: 7.5 mg/kg/injection, schedule: Q04DX003 (ip), vehicle: saline 108 % of control and 97 % of control | dose: 15.0 mg/kg/injection, schedule: Q01DX009 (ip), vehicle: saline 100 % of control and 96 % of control | dose: 15.0 mg/kg/injection, schedule: Q04DX003 (ip), vehicle: saline 95 % of control and 111 % of control | dose: 30.0 mg/kg/injection, schedule: Q01DX009 (ip), vehicle: saline 109 % of control and 112 % of control | dose: 30.0 mg/kg/injection, schedule: Q04DX003 (ip), vehicle: saline 92 % of control and 111 % of control | dose: 60.0 mg/kg/injection, schedule: Q01DX009 (ip), vehicle: saline 107 % of control and 108 % of control | dose: 60.0 mg/kg/injection, schedule: Q04DX003 (ip), vehicle: saline 95 % of control

CCN(CC)CC(O)c1ccnc2c([N+](=O)[O-])cc(OC)cc12 (configuration not stated)
inactive: dose: 75.0 mg/kg/injection, schedule: Q01DX001 (ip), vehicle: acetone 106 % of control | dose: 150.0 mg/kg/injection, schedule: Q01DX001 (ip), vehicle: acetone 102 % of control | dose: 300.0 mg/kg/injection, schedule: Q01DX001 (ip), vehicle: acetone 91 % of control

Cc1ccc(NC(=O)NCCBr)cc1
inactive: dose: 50.0 mg/kg/injection, schedule: Q01DX001 (ip), vehicle: carboxymethylcellulose (CMC) 101 % of control | dose: 100.0 mg/kg/injection, schedule: Q01DX001 (ip), vehicle: carboxymethylcellulose (CMC) 101 % of control | dose: 200.0 mg/kg/injection, schedule: Q01DX001 (ip), vehicle: carboxymethylcellulose (CMC) 106 % of control | dose: 400.0 mg/kg/injection, schedule: Q01DX001 (ip), vehicle: carboxymethylcellulose (CMC) 98 % of control

C[N+](C)(C)CC(O)CC#N (configuration not stated)
inactive: dose: 12.5 mg/kg/injection, schedule: Q01DX009 (ip), vehicle: Klucel (hydroxypropylcellulose) (HPC) 98 % of control | dose: 25.0 mg/kg/injection, schedule: Q01DX009 (ip), vehicle: Klucel (hydroxypropylcellulose) (HPC) 96 % of control | dose: 50.0 mg/kg/injection, schedule: Q01DX009 (ip), vehicle: Klucel (hydroxypropylcellulose) (HPC) 93 % of control

O=C1/C(=C\c2ccc(OCc3ccccc3)cc2)N2CCC1CC2
inactive: [4] 97 % of control | [6] 95 % of control | [7] 87 % of control

O=C(c1ccccc1)C1CC1c1ccccc1 (configuration not stated)
inactive: dose: 75.0 mg/kg/injection, schedule: Q01DX001 (ip), vehicle: Klucel (hydroxypropylcellulose) (HPC) 96 % of control | dose: 75.0 mg/kg/injection, schedule: Q04DX002 (ip), vehicle: saline with Tween-80 105 % of control | [14] 101 % of control | dose: 150.0 mg/kg/injection, schedule: Q01DX001 (ip), vehicle: Klucel (hydroxypropylcellulose) (HPC) 100 % of control | dose: 150.0 mg/kg/injection, schedule: Q04DX002 (ip), vehicle: saline with Tween-80 91 % of control | dose: 200.0 mg/kg/injection, schedule: Q04DX003 (ip), vehicle: saline 93 % of control | dose: 300.0 mg/kg/injection, schedule: Q01DX001 (ip), vehicle: Klucel (hydroxypropylcellulose) (HPC) 102 % of control | dose: 300.0 mg/kg/injection, schedule: Q04DX002 (ip), vehicle: saline with Tween-80 98 % of control | dose: 400.0 mg/kg/injection, schedule: Q04DX003 (ip), vehicle: saline 103 % of control

Cc1ccc(SC(=S)Sc2ccc(C)cc2)cc1
inactive: dose: 50.0 mg/kg/injection, schedule: Q01DX009 (ip), vehicle: saline with Tween-80 91 % of control | [3] 91 % of control | [5] 87 % of control

CCN(CC)C(=O)O/N=C/c1ccccc1
inactive: [11] 94 % of control | [12] 91 % of control | [13] 96 % of control

C[N+](C)(C)c1ccc([N+](=O)[O-])cn1
inactive: [14] 101 % of control

CCCc1cccc[n+]1CC(=O)c1ccccc1
inactive: dose: 6.25 mg/kg/injection, schedule: Q01DX009 (ip), vehicle: saline sonified 115 % of control | dose: 12.5 mg/kg/injection, schedule: Q01DX009 (ip), vehicle: saline sonified 107 % of control | dose: 25.0 mg/kg/injection, schedule: Q01DX009 (ip), vehicle: saline sonified 91 % of control
